These results are taken from patent publication EP2703005A1, “Inhibitors of alpha6 Integrin/E-Cadherin Complex” (Università Degli Studi Di Torino, priority 2012, dated 2014).

The target of one assay is T1, β4 integrin (Homo sapiens, UniProt P16144+P23229).
T1 construct: from tissue; host or cells: 7 pooled human liver metastases secondary to CRC
As to the kind of experiment: Affinity purification of liver metastasis lysates on column-immobilized peptide, ELISA for integrin subunits. The format is binding. As to conditions: lysates of 7 pooled human liver metastases, versus salt and control peptide fractions. The protocol:
Validation of MTS-phage targets. Binding of single phage clones on whole cells was performed with a 10^9 TU input of each phage on 5x10^5 suspended cells in binding medium as described (Chambers et al. 2002. Nat Rev Cancer, 2:563-572). For overlay binding experiments, 5 x10^9 TU/ml of each phage was incubated with 10 µm tissue sections of OCT-frozen tissues and detected as described , with the EnVision system (DAKO) and 3-amino-9-ethylcarbazole (AEC) as substrate (Arap et al 2002, Nat Med, 8:121-127; Padua et al. 2008, Cell, 133:66-77). Phage overlay images were acquired with an EC3 Leica camera (Leica Microsystems, Milan, Italy). […] Protein amounts in collected fractions were followed by reading their OD at 280 nm, and selected fractions were concentrated by the use of Microcon centrifugal filter devices with cut-off 10,000 (Millipore) to remove residual synthetic peptides. Proteins were quantified with the Coomassie (Bradford) Protein Assay Kit (Pierce), and 500 ng of each sample was evaluated for the presence of specific integrin subunits with a standard ELISA assay. In parallel, the relative amount of targeted proteins was assessed by phage binding as described (66), on 2 µg of each sample and with an input of 10^9 TU of fd-tet or […]-phage. […]
In general terms: In an ELISA, binding on a coated surface is turned into a signal by an enzyme label.

Assay [1] relates to NCI-H630 cells. As to the kind of experiment: Cell adhesion to peptides and proteins coated on microwells. Format: cell-based, human. An excerpt:
Preparation of cell lines with silenced expression of the MTS-tageted genes. A transient gene silencing approach was applied to cells used exclusively for short-term, in vitro experiments. NCI-H630 cells were transduced with ON-TARGETplus SmartPOOL siRNA for ITGA6 and CDH1, or with control siRNA (Dharmacon, Lafayette, CO). For each experimental point, 2x10^5 cells were reverse-transfected with either control, ITGA6, CDH1, or both siRNA pools, according to the manufacturer's protocol. To quantify the downmodulation of targeted genes, RNA and protein levels were evaluated after 24 and 72 hours, respectively. A stable gene silencing approach was preferred for cells used for long-term, in vivo experiments. For this purpose, 2x10^5 HCT-116m, SW-48, HT-29, or DLD-1 cells were transfected with shRNA plasmid pools targeting ITGA6 (sc-43129-SH) or CDH1 (sc-35242-SH), or with non-targeting control shRNA plasmid pool A (sc-108060) (all from Santa Cruz Biotechnologies), according to the manufacturer's protocol. Following selection in medium supplemented with 2.5 µg/ml puromycin, 6 clones for each experimental point were subjected to dotblot analysis to confirm selective protein down-regulation. […]
(§1) Adhesion, proliferation, and migration assays. […] Adhered cells were counted manually under a light microscope.

Assay [2] deals with DLD-1. The experiment in a line: Liver adhesion assay on frozen sections of grossly normal human liver. As to conditions: 30 minutes, versus control peptide. The format is cell-based. The protocol:
(§2) Adhesion, proliferation, and migration assays. All the described in vitro tests were performed at least in triplicate. For investigation of cell adhesion to peptides and proteins, 1 µg of each substrate was incubated per well of a 96 well-plate for 1 hour at 37°C. After a blocking step in IMDM, 2% FCS for 1 hour at 37°C, 10^4 cells were allowed to adhere for 1 hour at 37°C. Samples were washed gently in PBS, and cells were fixed in 8% glutaraldehyde and stained in 0.25% crystal violet in 10% methanol. For tissue adhesion, OCT-frozen grossly normal liver samples were cut into 10 µm sections. Tissues were blocked in IMDM, 2% FCS for 30 minutes at 37°C, followed by incubation with 5x10^4 cells in 5% CO2 at 37°C, for the indicated periods of time. Samples were washed 4 times in the same medium and once in PBS, fixed in 4% para-formaldehyde, and stained with hematoxylin (BioOptica). Adhered cells were counted manually under a light microscope.

The test system of another assay is HCT-116 cells. The assay is described as above. Format: cell-based. The note with it: non-metastatic cells with very low levels of the receptor proteins; 30 minutes. The method, then:
as §2

The test system of assay [3] is HCT-116m. The description is as above. Format: cell-based. The note with it: 30 minutes, versus control peptide. The method, then: as §2
The subject of the next assay is HT-29. The description is as above. The format is cell-based. The note with it: 30 minutes, versus control peptide. The method, then:
as §2

The test system of assay [4] is NCI-H630 cells. Described as above. Format: cell-based. The note with it: liver sections from 27 patients, 30 minutes, versus control peptide. The protocol:
as §2

Assay [5] relates to SW-48. Described as above. The note with it: 30 minutes, versus control peptide. The format is cell-based. The method, then: as §2
Assay [6] concerns U293 cells transduced with α6 integrin, E-cadherin or both. Described as above. Format: cell-based. As to conditions: 30 minutes, versus control peptide.
Source text: (§3) Preparation of cells stably overexpressing the MTS-targeted proteins. The cDNA of FLAG-tagged human angiopoietin-like 6, inserted into pcDNA3.1 (+).Neo vector (pcDNA3.ANGL6), was a gift from Dr. Y. Oike (Japan Science and Technology Agency, Japan (Minn et al., 2007, Proc Natl Acad Sci USA, 104:6740-6745); the cDNA of human E-cadherin, cloned into a pcDNA3.1 (+). Neo vector (pcDNA3.CAD1) was a gift from Dr. C. Gottardi (North Western University Medical School, Chicago, IL (Bos, et al. 2009, Nature 459:1005-1009); the cDNA of β4 integrin, cloned into a PRK5 plasmid (pRK5.ITB4), was purchased from Addgene (Cambridge, MA); the cDNA of human α6A integrin, inserted in pLXSN plasmid (pLα6SN (Kuo et al. 1995, Proc Natl Acad Sci USA, 92:12085-12089), was a gift of Dr. A. Magrelli (La Sapienza University, Rome, Italy). The latter was PCR-amplified with the following primer pair: • 5'-[…]-3' (SEQ ID No 28) and • 5'-[…]-3' (SEQ ID No 29) and subcloned into a pcDNA3.1 (+). Hygro vector between HindIII and ApaI sites to obtain the pcDNA3.ITA6A plasmid. […]
as §1

Assay [7] relates to U293 cells stably overexpressing E-cadherin, α6 integrin or both. The experiment in a line: Cell proliferation assay (crystal violet). Format: cell-based, human. The note with it: 100 µM peptide, 10% FCS, versus control peptide.
Source text: as §3, with “(+).” for “(+). Hygro vector between HindIII and ApaI sites to obtain the pcDNA3.ITA6A plasmid.”
To test the effects of peptides on cell proliferation, we seeded 2x10^4 cells per well in a 24-well plate, in the presence of either control or […] peptide (100 µM). […] Cell growth was evaluated by absorbance at 590 nm in a microplate reader (Perkin Elmerm Waltham, MA). A calibration curve was set up with known numbers of cells and a linear correlation between absorbance and cell counts was established up to 5x10^5 cells/well.

For a further assay, the system named is LS-174T cells. The experiment in a line: Hepatic colonization model, intrahepatic injection of CRC cells. The format is in vivo, CD-1 nude mice. As to conditions: 5x10^6 cells/mouse injected with 100 µM soluble peptide, 14 days, versus vehicle. The protocol:
Animal models of human metastatic CRC. Six-week female CD1-nude mice were purchased from Charles River (Lecco, Italy). Animals were subjected to intraperitoneal anaesthesia with a mixture composed by 0.75 mg/ml xylazine (Xilor®, BIO98, Milan, Italy), 1 mg/ml tiletamine - 1mg/ml zolazepam (Zoletil®, Virbac, Milan, Italy), in physiological solution. After the mice were deeply asleep, a midline incision was performed and target organs were gently exposed. Two or five million suspended cells were injected in 50 µl of culture medium intrasplenically (Tibbettset al. 1993. Cancer, 71:315-321) or into the median liver lobe (Grothey, et al. 2009. Nat Rev Clin Oncol, 6:507-518), respectively. To investigate a pharmacological intervention on liver homing and/or colonization of CRC cells, animals were divided in two arms, receiving medium alone (vehicle) or supplemented with 100 µM […] peptide. The wound was closed by a double suture and each animal was given 0.1 mg caprofen (Rymadil®, Pfizer, Milan, Italy) in a physiological solution to allow post-operative pain relief and rehydration. Mice were strictly monitored until completely awake, and oral ampicillin was administered for 5 days following the surgery. […] External metastatic areas were quantified using ImageJ software.

Assay [8] relates to DLD-1. The experiment in a line: Liver homing model, intrasplenic implantation. The format is in vivo, CD-1 nude mice. As to conditions: 2x10^6/mouse intrasplenically with 100 µM soluble peptide, versus vehicle; effect stated as not significant in this model. The method, then: (§4) Animal models of human metastatic CRC. Six-week female CD1-nude mice were purchased from Charles River (Lecco, Italy). Animals were subjected to intraperitoneal anaesthesia with a mixture composed by 0.75 mg/ml xylazine (Xilor®, BIO98, Milan, Italy), 1 mg/ml tiletamine - 1mg/ml zolazepam (Zoletil®, Virbac, Milan, Italy), in physiological solution. After the mice were deeply asleep, a midline incision was performed and target organs were gently exposed. Two or five million suspended cells were injected in 50 µl of culture medium intrasplenically (Tibbettset al. 1993. Cancer, 71:315-321) or into the median liver lobe (Grothey, et al. 2009. Nat Rev Clin Oncol, 6:507-518), respectively. To investigate a pharmacological intervention on liver homing and/or colonization of CRC cells, animals were divided in two arms, receiving medium alone (vehicle) or supplemented with 100 µM […] peptide. The wound was closed by a double suture and each animal was given 0.1 mg caprofen (Rymadil®, Pfizer, Milan, Italy) in a physiological solution to allow post-operative pain relief and rehydration. Mice were strictly monitored until completely awake, and oral ampicillin was administered for 5 days following the surgery. Mice were euthanized at the indicated time points, and organs were photographed with a PL-200 digital photocamera (Samsung Electronics, Milan, Italy). External metastatic areas were quantified using ImageJ software.

A further assay concerns HCCM-1544. As to the kind of experiment: Liver homing model, intrasplenic implantation. The format is in vivo, CD-1 nude mice. As to conditions: 2x10^6/mouse intrasplenically with 100 µM soluble peptide, versus vehicle. The protocol:
as §4

Assay [9] concerns HCT-116m. The experiment in a line: Liver homing model, intrasplenic implantation. The note with it: 2x10^6/mouse intrasplenically with 100 µM soluble peptide, versus vehicle; 20 days. The format is in vivo, CD-1 nude mice. The protocol:
as §4

The test system of the next assay is LS-174T. As to the kind of experiment: Liver homing model, intrasplenic implantation. Format: in vivo, CD-1 nude mice. The note with it: 2x10^6/mouse intrasplenically with 100 µM soluble peptide, versus vehicle. The method, then: as §4
In assay [10] the test system is SW-48. The experiment in a line: Liver homing model, intrasplenic implantation. Format: in vivo, CD-1 nude mice. The note with it: 2x10^6/mouse intrasplenically with 100 µM soluble peptide, versus vehicle. The protocol: as §4
The next assay deals with T2, α6 integrin/E-cadherin (Homo sapiens, UniProt P12830+P23229).
T2 construct: subjected to immunostaining with anti-α6 integrin and anti-E-cadherin antibodies followed by confocal microscopic imaging; endogenous in cells; host or cells: human CRC cells (LS-174T; also HCT-116m, SW-48, DLD-1, HT-29) xenografted into the liver of CD-1 nude mice
The experiment in a line: Confocal imaging of α6 integrin and E-cadherin in explanted liver tumor tissues. Format: in vivo, CD-1 nude mice. The note with it: LS-174T liver tumors, cells injected with soluble peptide, 14 days. The method, then: Immunostaining. OCT-frozen tissues were cut in 10 µm sections, paraffin-embedded tissues in 5 µm sections. For immunostaining of cell lines, 10^4 cells were plated on a SuperFrost Plus glass slide (Menzel-Glaser, Braunschweig, Germany) and were grown for 24 hours followed by fixation in 4% paraformaldehyde in PBS for 5 minutes at room temperature. Immunostaining was performed according to standard protocols. Fluorescent images were acquired with either a DMIRE2 confocal microscope or with a DMI 3000D microscope equipped with a DFC 360FX digital camera (all from Leica. Visible images were acquired with either an EC3 Leica (immunostaining of frozen tissues) or a High-Performance IEEE 1394 FireWire Digital CCD Camera (QIMAGING, Surrey, BC, Canada) (immunostaining of paraffin-embedded tissues). For the quantification of specific fluorescent signals, 3 confocal images (1024x1024 pixels, equivalent to 375x375 µm) for each sample, acquired by keeping all the parameters constant, were divided in two 8-bit images corresponding to the red and green fluorescence channels. […]
Animal models of human metastatic CRC. […] Mice were strictly monitored until completely awake, and oral ampicillin was administered for 5 days following the surgery. […] External metastatic areas were quantified using ImageJ software.

T1 sequence (P16144 28-1822): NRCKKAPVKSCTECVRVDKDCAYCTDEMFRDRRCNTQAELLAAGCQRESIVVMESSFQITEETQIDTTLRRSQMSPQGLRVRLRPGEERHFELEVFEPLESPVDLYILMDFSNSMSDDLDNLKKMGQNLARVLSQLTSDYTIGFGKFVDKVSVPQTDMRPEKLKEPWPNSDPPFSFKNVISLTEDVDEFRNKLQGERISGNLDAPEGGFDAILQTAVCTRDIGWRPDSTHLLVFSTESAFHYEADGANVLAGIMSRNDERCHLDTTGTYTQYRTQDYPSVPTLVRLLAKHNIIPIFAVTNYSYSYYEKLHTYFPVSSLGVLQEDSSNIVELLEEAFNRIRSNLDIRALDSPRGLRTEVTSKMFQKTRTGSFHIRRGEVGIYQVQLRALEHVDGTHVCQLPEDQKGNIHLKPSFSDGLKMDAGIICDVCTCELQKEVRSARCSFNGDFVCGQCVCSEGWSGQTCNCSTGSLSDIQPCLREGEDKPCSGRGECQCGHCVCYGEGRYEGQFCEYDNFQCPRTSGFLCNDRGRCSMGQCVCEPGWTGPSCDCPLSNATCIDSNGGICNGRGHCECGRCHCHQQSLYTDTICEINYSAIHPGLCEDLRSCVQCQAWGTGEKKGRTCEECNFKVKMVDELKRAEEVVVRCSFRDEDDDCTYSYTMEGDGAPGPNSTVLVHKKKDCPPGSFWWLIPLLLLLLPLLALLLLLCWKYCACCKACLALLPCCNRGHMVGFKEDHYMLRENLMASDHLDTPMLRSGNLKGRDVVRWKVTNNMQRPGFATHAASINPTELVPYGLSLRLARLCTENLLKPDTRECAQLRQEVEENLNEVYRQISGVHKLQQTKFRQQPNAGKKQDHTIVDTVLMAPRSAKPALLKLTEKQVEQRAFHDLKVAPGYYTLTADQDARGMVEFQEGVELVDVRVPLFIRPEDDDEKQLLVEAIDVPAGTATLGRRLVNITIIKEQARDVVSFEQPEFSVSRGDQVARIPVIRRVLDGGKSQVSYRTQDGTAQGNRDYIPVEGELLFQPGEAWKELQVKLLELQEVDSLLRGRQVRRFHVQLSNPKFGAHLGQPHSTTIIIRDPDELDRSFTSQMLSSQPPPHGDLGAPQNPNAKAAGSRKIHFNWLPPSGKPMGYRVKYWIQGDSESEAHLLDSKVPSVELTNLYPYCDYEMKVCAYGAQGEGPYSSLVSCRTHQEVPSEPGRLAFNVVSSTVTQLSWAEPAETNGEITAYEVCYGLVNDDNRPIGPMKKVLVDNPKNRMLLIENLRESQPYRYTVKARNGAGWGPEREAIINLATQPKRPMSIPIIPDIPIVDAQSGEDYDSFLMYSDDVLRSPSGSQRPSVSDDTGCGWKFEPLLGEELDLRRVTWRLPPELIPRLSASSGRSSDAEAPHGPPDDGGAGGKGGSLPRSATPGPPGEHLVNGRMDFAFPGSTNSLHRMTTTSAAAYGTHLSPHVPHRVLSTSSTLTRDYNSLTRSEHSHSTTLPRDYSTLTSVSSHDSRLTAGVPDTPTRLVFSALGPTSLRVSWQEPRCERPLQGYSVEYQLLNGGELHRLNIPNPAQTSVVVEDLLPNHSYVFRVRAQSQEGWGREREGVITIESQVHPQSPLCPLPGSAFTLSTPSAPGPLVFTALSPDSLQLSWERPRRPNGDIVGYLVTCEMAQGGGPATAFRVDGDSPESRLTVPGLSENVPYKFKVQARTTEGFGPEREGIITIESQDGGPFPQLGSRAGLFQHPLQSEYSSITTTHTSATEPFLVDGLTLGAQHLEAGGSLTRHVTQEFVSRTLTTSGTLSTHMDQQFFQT
T1 sequence (P23229 24-1073 isoform P23229-2 limits assumed): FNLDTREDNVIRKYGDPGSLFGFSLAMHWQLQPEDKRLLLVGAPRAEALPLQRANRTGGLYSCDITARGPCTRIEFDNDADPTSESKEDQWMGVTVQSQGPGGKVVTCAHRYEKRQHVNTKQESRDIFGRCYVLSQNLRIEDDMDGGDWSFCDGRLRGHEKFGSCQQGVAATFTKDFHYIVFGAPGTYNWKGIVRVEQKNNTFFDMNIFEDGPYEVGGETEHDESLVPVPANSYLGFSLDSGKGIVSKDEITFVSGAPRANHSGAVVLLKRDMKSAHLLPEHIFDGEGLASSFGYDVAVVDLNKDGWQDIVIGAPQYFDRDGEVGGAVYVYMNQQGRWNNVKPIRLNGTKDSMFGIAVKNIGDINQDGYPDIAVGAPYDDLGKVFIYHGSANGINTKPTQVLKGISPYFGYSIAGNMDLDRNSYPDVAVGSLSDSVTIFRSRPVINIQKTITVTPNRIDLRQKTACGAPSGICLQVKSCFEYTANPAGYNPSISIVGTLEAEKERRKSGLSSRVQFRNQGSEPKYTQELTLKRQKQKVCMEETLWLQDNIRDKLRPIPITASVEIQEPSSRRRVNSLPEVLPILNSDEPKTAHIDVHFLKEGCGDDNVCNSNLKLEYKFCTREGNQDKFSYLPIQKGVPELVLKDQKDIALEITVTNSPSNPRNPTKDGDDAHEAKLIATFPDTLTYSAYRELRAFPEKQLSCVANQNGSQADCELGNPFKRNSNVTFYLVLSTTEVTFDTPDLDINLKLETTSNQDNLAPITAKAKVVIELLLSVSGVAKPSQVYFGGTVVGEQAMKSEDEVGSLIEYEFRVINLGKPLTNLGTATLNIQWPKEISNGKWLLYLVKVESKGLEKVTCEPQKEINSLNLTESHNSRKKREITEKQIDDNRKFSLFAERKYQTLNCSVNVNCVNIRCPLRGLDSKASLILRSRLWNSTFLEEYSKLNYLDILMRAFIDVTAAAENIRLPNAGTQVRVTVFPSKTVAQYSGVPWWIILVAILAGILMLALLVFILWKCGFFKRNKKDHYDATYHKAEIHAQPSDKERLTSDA
T2 sequence (P23229 24-1073 isoform P23229-2 limits assumed): as above
T2 sequence (P12830 155-882): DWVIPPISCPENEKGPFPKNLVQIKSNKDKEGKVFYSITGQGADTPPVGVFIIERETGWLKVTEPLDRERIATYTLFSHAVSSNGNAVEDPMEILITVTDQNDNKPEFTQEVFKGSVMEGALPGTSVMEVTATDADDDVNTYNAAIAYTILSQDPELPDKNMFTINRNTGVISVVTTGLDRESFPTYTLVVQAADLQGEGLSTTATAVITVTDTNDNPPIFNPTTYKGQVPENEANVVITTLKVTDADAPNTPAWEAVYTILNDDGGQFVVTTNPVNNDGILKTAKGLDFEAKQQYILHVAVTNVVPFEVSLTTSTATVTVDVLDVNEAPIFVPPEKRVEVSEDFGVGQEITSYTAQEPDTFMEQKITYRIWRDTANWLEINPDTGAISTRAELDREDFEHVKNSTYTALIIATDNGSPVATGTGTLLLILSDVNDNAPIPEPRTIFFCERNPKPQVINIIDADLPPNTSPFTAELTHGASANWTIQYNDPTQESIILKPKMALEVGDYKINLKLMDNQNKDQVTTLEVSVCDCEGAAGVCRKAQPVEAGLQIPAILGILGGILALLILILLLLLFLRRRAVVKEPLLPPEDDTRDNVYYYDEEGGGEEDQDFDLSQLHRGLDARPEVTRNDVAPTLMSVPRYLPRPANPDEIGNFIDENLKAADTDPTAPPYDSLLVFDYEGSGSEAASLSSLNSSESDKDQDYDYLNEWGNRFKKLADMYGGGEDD
T2 sequence (P16144 28-1822 partner): as the sequence (P16144 28-1822) above

Take “CGIYRLRSC [Targeting synthetic LRS-motif peptide, from New England Peptides]”: the “enrichment of integrin subunit in peptide- and phage-targeted protein fractions” value with β4 integrin is “substantial enrichment in the β4 subunit”. The “adherence of cells to microwells coated with the peptide” value in the assay on NCI-H630 cells [1] (NCI-H630 cells in which ITGA6 or both mRNAs were silenced, 1 µg substrate per well, 1 hour) is “impaired adherence”; in the assay with NCI-H630 cells [1] (NCI-H630 cells with both α6 integrin and E-cadherin downmodulated) it was “particularly pronounced”. In addition, the “adhesiveness on hepatic tissues” value in the assay with DLD-1 [2], in the assay on HCT-116m [3], in the assay on HT-29 and with SW-48 [5] was “significantly inhibited” in each case. Moreover, in the assay with HCT-116 cells, the “adhesion to normal hepatic tissues” value is “not influenced”. The “cell adhesion to human liver sections” value with NCI-H630 cells [4] is on record as “significant decrease in cell adhesion”. Moreover, in [6], the liver adhesion result is “inhibited liver adhesion of U293 cells only when they concomitantly expressed α6 integrin and E-cadherin”. For the same sequence, in assay [7], the proliferation result was “no effects”. The “liver tumors (external tumor areas)” value with LS-174T cells was “significant reduction of liver tumors”. The “homing of CRC cells to the liver (external metastatic areas)” value is on record as “diminished homing of CRC cells to the liver” with DLD-1 [8]; “diminished homing of CRC cells to the liver, which was significant” in the assay with HCCM-1544; “diminished homing of CRC cells to the liver, which was significant” with HCT-116m [9]; “diminished homing of CRC cells to the liver, which was significant” with LS-174T; “diminished homing of CRC cells to the liver, which was significant” with SW-48 [10]. The “overall morphology and levels of receptor complex in the tumors” value with α6 integrin/E-cadherin is “unchanged”.
